Laboratory results reported in US10392368B2, “Pyrazolo and triazolo bicyclic compounds as JAK kinase inhibitors” (THERAVANCE BIOPHARMA R&D IP, LLC, priority 2017, dated 2019).
Read-outs that look alike come from different tables or passages of the source.

Assays:
JAK1 = biological target: T1, JAK1 (Homo sapiens, UniProt P23458); experiment: Biochemical JAK1 kinase assay (LanthaScreen); settings: for Ki: read-out: JAK 1 (pKi) (converted)
T1 construct: GST; purchased Life Technologies
Method in brief: (§1)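 TR-FRET read-out: terbium anti-pSTAT1 (pTyr701) antibody, 2 nM, with 10 mM EDTA quench, emission ratio 520/495 nm. GST-JAK phosphorylates GFP-STAT1 peptide for 1 h at ambient temperature after 1 h compound pre-incubation. pIC50 from dose-response converted to pKi by Cheng-Prusoff.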

JAK2 = biological target: T2, JAK2 (Homo sapiens, UniProt O60674); experiment: Biochemical JAK2 kinase assay (LanthaScreen); settings: for Ki: read-out: JAK 2 (pKi) (converted)
T2 construct: GST; purchased Life Technologies
T2 sequence (O60674 whole entry): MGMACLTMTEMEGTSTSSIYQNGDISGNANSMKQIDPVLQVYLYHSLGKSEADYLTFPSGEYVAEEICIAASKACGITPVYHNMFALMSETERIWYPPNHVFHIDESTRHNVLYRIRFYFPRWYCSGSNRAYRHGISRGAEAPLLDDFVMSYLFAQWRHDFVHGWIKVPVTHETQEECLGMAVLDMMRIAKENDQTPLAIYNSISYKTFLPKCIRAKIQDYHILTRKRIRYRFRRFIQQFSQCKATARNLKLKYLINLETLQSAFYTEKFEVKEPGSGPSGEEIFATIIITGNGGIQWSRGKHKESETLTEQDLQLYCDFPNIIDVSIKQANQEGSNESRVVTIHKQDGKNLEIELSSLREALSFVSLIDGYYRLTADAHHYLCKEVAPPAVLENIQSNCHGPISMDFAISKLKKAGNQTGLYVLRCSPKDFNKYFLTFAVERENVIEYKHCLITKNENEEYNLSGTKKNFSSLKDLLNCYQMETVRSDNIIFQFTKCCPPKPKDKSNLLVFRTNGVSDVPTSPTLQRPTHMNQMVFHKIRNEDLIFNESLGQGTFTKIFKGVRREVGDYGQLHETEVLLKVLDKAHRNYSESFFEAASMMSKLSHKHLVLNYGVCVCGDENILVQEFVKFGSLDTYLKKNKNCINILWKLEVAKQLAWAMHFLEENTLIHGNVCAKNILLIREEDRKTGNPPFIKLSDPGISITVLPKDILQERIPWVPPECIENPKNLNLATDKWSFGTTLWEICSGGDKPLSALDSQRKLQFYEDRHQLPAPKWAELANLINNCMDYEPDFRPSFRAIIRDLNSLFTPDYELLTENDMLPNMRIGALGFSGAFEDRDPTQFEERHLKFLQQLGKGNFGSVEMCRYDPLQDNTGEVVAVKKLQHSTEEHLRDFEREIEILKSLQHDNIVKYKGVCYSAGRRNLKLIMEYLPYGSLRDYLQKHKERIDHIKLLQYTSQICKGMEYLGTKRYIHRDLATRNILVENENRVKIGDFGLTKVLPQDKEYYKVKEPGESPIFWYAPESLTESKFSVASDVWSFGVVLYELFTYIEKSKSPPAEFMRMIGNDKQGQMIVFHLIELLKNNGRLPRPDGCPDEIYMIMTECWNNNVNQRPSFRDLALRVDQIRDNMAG
Method in brief: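 pKi values derive from pIC50 via Cheng-Prusoff, with IC50 from a 4-parameter fit of percent-inhibition TR-FRET data using Tb-anti-pSTAT1 (pTyr701) detection. Compound, GST-JAK2 and GFP-STAT1 substrate were pre-incubated 1 h, then ATP started a 1 h ambient reaction (HEPES pH 7.5, 10 mM MgCl2, 1% DMSO).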

Tyk2 = biological target: T3, Tyk2 (Homo sapiens, UniProt P29597); experiment: Biochemical Tyk2 kinase assay (LanthaScreen); settings: for Ki: read-out: Tyk 2 (pKi) (converted)
T3 construct: GST; purchased Life Technologies
T3 sequence (P29597 whole entry): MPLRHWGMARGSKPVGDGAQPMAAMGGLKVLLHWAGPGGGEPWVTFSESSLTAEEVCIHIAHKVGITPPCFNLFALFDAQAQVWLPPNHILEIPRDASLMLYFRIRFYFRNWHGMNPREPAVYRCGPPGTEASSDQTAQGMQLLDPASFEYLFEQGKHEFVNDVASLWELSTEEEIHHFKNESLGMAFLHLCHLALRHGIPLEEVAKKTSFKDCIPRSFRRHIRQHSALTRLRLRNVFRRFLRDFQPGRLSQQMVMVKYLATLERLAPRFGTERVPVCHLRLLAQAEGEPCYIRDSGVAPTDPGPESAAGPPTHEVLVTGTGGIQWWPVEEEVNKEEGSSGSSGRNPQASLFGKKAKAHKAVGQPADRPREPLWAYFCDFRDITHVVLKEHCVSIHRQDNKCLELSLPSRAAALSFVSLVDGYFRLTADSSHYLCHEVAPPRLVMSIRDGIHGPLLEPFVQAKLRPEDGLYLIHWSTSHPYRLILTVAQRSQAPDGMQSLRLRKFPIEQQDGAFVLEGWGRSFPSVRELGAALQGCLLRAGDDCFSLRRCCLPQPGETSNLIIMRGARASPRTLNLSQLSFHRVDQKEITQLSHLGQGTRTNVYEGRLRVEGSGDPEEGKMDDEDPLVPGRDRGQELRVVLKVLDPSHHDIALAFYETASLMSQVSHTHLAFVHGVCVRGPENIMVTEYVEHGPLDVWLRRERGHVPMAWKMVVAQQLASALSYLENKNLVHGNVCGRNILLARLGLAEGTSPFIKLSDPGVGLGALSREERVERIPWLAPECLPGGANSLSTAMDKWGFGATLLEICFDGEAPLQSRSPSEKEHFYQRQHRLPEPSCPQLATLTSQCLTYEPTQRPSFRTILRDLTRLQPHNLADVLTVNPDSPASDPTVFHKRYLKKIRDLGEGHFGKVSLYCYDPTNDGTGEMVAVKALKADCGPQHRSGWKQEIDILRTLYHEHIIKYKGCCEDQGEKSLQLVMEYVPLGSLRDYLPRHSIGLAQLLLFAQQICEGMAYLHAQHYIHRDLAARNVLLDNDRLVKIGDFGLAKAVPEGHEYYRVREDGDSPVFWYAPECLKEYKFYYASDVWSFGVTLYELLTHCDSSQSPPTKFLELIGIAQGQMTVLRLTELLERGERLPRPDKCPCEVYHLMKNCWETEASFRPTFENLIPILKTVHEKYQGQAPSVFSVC
Method in brief: as §1

[1] = system: IL-2 stimulated pSTAT5 in Tall-1 T cells; experiment: Cellular JAK3 potency assay: inhibition of IL-2 stimulated pSTAT5 in Tall-1 T cells; format: cell-based, human; settings: for Tall-1 (pIC50): IL-2 stimulated pSTAT5, Tall-1 T cells; for IC50: Homo sapiens, read-out: Tall-1 (pIC50) (converted)
Method in brief: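 Inhibition of IL-2-induced pSTAT5 was quantified by AlphaLisa in Tall-1 cell lysates. Compound exposure lasted 1 h before 30 min stimulation with 300 ng/ml IL-2 final.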

JAK3 = biological target: T4, JAK3 (Homo sapiens, UniProt P52333); experiment: Biochemical JAK3 kinase assay (LanthaScreen); design: GST; purchased Life Technologies; settings: for Ki: read-out: JAK 3 (pKi) (converted)
T4 sequence (P52333 1-1124): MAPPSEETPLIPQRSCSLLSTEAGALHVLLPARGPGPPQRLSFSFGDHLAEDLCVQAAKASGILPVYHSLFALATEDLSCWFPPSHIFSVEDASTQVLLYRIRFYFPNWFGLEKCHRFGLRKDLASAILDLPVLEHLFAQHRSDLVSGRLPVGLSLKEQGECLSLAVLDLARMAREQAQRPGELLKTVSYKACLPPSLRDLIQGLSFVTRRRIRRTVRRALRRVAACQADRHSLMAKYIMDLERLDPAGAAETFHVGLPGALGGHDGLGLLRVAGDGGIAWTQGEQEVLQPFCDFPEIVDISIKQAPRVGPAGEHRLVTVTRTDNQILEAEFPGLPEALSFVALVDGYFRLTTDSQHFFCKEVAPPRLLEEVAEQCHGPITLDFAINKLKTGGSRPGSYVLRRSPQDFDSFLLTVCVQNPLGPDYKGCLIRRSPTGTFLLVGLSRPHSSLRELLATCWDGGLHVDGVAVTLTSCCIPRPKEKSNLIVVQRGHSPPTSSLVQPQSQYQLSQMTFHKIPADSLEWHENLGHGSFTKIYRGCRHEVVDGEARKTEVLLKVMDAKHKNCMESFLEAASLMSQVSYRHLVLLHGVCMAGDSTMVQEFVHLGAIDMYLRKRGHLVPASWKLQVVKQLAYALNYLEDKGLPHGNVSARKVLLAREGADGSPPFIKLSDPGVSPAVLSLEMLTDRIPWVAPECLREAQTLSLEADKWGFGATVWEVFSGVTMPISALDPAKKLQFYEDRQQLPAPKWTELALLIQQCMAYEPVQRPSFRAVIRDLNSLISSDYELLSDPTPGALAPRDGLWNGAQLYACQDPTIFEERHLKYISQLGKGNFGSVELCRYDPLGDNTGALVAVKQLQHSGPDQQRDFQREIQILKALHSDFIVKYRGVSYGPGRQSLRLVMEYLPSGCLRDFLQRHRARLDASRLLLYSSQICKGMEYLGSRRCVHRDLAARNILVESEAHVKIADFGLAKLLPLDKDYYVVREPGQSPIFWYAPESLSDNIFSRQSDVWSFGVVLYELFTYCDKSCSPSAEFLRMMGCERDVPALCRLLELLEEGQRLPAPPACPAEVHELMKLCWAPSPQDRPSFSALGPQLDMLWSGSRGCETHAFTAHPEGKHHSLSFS
Method in brief: as §1

[2] = selectivity JAK3 over JAK1, difference of pKi
[3] = TALL-1, IL-2 stimulated pSTAT5 in Tall-1 T cells
[4] = selectivity: difference of pKi JAK3 and pKi JAK1
[5] = TALL-1, IL-2 stimulated pSTAT5, Tall-1 T cells

T1 sequence (P23458 whole entry): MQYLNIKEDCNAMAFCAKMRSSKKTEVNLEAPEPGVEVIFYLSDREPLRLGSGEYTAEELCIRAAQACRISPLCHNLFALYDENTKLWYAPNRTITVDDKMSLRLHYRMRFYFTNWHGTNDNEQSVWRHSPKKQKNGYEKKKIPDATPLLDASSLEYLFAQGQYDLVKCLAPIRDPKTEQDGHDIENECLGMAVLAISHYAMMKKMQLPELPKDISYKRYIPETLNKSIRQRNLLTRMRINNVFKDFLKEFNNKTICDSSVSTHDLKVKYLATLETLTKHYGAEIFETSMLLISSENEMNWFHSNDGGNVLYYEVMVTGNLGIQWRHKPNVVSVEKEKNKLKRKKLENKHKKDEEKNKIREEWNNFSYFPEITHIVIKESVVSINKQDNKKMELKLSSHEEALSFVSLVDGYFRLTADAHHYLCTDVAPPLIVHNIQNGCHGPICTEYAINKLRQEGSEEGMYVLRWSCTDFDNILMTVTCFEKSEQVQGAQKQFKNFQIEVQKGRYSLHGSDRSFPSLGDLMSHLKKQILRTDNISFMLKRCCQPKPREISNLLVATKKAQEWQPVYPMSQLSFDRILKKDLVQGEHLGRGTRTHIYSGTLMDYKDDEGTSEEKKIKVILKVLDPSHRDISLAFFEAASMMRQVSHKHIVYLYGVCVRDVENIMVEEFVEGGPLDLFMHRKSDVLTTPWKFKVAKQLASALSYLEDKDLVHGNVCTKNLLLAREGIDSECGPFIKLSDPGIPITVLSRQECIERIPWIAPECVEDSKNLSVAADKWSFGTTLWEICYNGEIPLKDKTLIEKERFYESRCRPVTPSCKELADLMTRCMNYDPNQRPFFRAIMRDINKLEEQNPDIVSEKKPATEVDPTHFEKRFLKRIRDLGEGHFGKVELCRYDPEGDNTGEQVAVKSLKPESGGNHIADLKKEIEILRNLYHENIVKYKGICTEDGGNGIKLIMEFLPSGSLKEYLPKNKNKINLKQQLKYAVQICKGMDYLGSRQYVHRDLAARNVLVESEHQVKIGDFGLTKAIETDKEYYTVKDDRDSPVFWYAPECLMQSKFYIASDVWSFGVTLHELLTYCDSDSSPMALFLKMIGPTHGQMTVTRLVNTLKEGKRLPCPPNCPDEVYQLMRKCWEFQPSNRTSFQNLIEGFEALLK

Row | SMILES | JAK 1 (pKi) (JAK1) | JAK 2 (pKi) (JAK2) | Tyk 2 (pKi) (Tyk2) | Tall-1 (pIC50) [1] | JAK 3 (pKi) (JAK3) | JAK3 (pKi)-JAK1 (pKi) (JAK3; [2]) | Ki (JAK1) | Ki (JAK2) | Ki (Tyk2) | IC50 [1, 3] | Ki (JAK3) | JAK3 (pKi)-JAK1 (pKi) (JAK3; [4]) | IC50 [1, 5]
1 | C=CC(=O)N1CC(OCc2cc(-c3ccc(O)c(Cl)c3)cc3[nH]ncc23)C1 [Compound 16-2] | E (a pKi value of 7 or below (Ki of 100 nM or above)) | E (a pKi value of 7 or below (Ki of 100 nM or above)) | E (a pKi value of 7 or below (Ki of 100 nM or above)) | A (a pIC50 value≥7.5 (IC50≤32 nM)) | A (a pKi value≥10 (Ki≤0.1 nM)) | A (a value of 3 or above) | – | – | – | – | – | – | –
2 | C=CC(=O)N1CC(OCc2cc(-c3ccc(O)c(F)c3)cc3[nH]ncc23)C1 [Compound 16-3] | E (a pKi value of 7 or below (Ki of 100 nM or above)) | E (a pKi value of 7 or below (Ki of 100 nM or above)) | E (a pKi value of 7 or below (Ki of 100 nM or above)) | A (a pIC50 value≥7.5 (IC50≤32 nM)) | B (a pKi value between 9 and 10 (Ki between 1 nM and 0.1 nM)) | A (a value of 3 or above) | – | – | – | – | – | – | –
3 | C=CC(=O)N1CC(OCc2nc(-c3ccc(O)cc3)cc3[nH]ncc23)C1 [Compound 16-5] | E (a pKi value of 7 or below (Ki of 100 nM or above)) | E (a pKi value of 7 or below (Ki of 100 nM or above)) | E (a pKi value of 7 or below (Ki of 100 nM or above)) | A (a pIC50 value≥7.5 (IC50≤32 nM)) | A (a pKi value≥10 (Ki≤0.1 nM)) | A (a value of 3 or above) | – | – | – | – | – | – | –
4 | CN(C)C/C=C/C(=O)N1CC(OCc2nc(-c3ccc(O)cc3)cc3[nH]ncc23)C1 [Compound 16-6] | E (a pKi value of 7 or below (Ki of 100 nM or above)) | E (a pKi value of 7 or below (Ki of 100 nM or above)) | E (a pKi value of 7 or below (Ki of 100 nM or above)) | C (a pIC50 value between 6 and 6.7 (IC50 between 1 μM and 200 nM)) | B (a pKi value between 9 and 10 (Ki between 1 nM and 0.1 nM)) | A (a value of 3 or above) | – | – | – | – | – | – | –
5 | CN(C)C/C=C/C(=O)N1CC(OCc2cc(-c3ccc(O)c(F)c3)cc3[nH]ncc23)C1 [Compound 16-7] | E (a pKi value of 7 or below (Ki of 100 nM or above)) | E (a pKi value of 7 or below (Ki of 100 nM or above)) | E (a pKi value of 7 or below (Ki of 100 nM or above)) | B (a pIC50 value between 6.7 (included) and 7.5 (IC50 between 200 nM and 32 nM)) | A (a pKi value≥10 (Ki≤0.1 nM)) | A (a value of 3 or above) | – | – | – | – | – | – | –
6 | C=CC(=O)N1CC(COc2cc(-c3ccc(O)cc3)cc3[nH]nnc23)C1 [Compound 17-1] | E (a pKi value of 7 or below (Ki of 100 nM or above)) | E (a pKi value of 7 or below (Ki of 100 nM or above)) | E (a pKi value of 7 or below (Ki of 100 nM or above)) | B (a pIC50 value between 6.7 (included) and 7.5 (IC50 between 200 nM and 32 nM)) | B (a pKi value between 9 and 10 (Ki between 1 nM and 0.1 nM)) | A (a value of 3 or above) | – | – | – | – | – | – | –
7 | C=CS(=O)(=O)N1CC[C@H](Oc2cc(-c3ccc(O)cc3)cc3[nH]ncc23)C1 [Compound 18, (S)-4-(4-((1-(vinylsulfonyl)pyrrolidin-3-yl)oxy)-1H-indazol-6-yl)phenol] | – | – | – | – | – | – | > 100 nM | 10 to 100 nM | > 100 nM | < 31.6 nM | 0.1 to 1 nM | A (a value of 3 or above) | –
8 | Cc1n[nH]c2cc(-c3ccc(O)c(Cl)c3)cc(OCC3CN(C(=O)/C=C/CN(C)C)C3)c12 [Compound 18-1] | – | – | – | – | – | B (a value of 2.3 to 3) | > 100 nM | 10 to 100 nM | > 100 nM | – | 0.1 to 1 nM | – | < 31.6 nM
9 | CN(C)C/C=C/C(=O)N1CC(COc2cc(-c3cc(F)c(O)cc3F)cc3[nH]ncc23)C1 [Compound 18-3] | – | – | – | – | – | B (a value of 2.3 to 3) | 10 to 100 nM | 10 to 100 nM | > 100 nM | – | < 0.1 nM | – | < 31.6 nM
10 | Cc1cc(-c2cc(OCC3CN(C(=O)/C=C/CN(C)C)C3)c3cn[nH]c3c2)ccc1O [Compound 18-8] | E (a pKi value of 7 or below (Ki of 100 nM or above)) | E (a pKi value of 7 or below (Ki of 100 nM or above)) | E (a pKi value of 7 or below (Ki of 100 nM or above)) | B (a pIC50 value between 6.7 (included) and 7.5 (IC50 between 200 nM and 32 nM)) | B (a pKi value between 9 and 10 (Ki between 1 nM and 0.1 nM)) | A (a value of 3 or above) | – | – | – | – | – | – | –
11 | C=CC(=O)N1CC(COc2cc(-c3ccc(O)c(C)c3)cc3[nH]ncc23)C1 [Compound 18-9] | – | – | – | – | – | A (a value of 3 or above) | > 100 nM | > 100 nM | > 100 nM | – | < 0.1 nM | – | < 31.6 nM
12 | C=CC(=O)N1CC(COc2cc(-c3ccc(O)cc3)cc3[nH]nc(SC)c23)C1 [Compound 18-10] | – | – | – | – | – | A (a value of 3 or above) | > 100 nM | 10 to 100 nM | > 100 nM | – | < 0.1 nM | – | 31.6 to 200 nM
13 | CN(C)C/C=C/C(=O)N1CC(COc2cc(-c3ccc(O)cc3)cc3[nH]nc(C(F)(F)F)c23)C1 [Compound 18-12] | – | – | – | – | – | B (a value of 2.3 to 3) | 10 to 100 nM | 10 to 100 nM | > 100 nM | – | 0.1 to 1 nM | – | 31.6 to 200 nM
14 | C=CC(=O)N1CC(COc2cc(-c3ccc(O)cc3)cc3[nH]nc(C(F)(F)F)c23)C1 [Compound 18-13] | – | – | – | – | – | A (a value of 3 or above) | > 100 nM | 10 to 100 nM | > 100 nM | – | < 0.1 nM | – | < 31.6 nM
15 | C=CC(=O)N1CC[C@H](COc2cc(-c3ccc(O)cc3)cc3[nH]nnc23)C1 [Compound 23, (S)-1-(3-(((6-(4-hydroxyphenyl)-1H-benzo[d][1,2,3]triazol-4-yl)oxy)methyl)pyrrolidin-1-yl)prop-2-en-1-one] | – | – | – | – | – | – | > 100 nM | 10 to 100 nM | > 100 nM | 31.6 to 200 nM | < 0.1 nM | A (a value of 3 or above) | –
16 | C=CC(=O)N1CC[C@H](Oc2cc(-c3ccc(O)c(Cl)c3)cc3[nH]nc(C)c23)C1 [Compound 24, (S)-1-(3-((6-(3-chloro-4-hydroxyphenyl)-3-methyl-1H-indazol-4-yl)oxy)pyrrolidin-1-yl)prop-2-en-1-one] | – | – | – | – | – | – | > 100 nM | > 100 nM | > 100 nM | < 31.6 nM | 0.1 to 1 nM | A (a value of 3 or above) | –
